We go through 17 compounds from US4031093A, “1,6-Dihydro-6-oxo-2-(ortho-substituted phenyl)pyrimidine-5-carboxylic acid derivatives” (priority 1976, dated 1977).

For this experiment, the system named is reagin-mediated rat Passive Cutaneous Anaphylaxis (PCA). As to the kind of experiment: reagin-mediated rat Passive Cutaneous Anaphylaxis (PCA) screening test. Format: in vivo, rat (Sprague-Dawley). The protocol: The reagin-mediated rat Passive Cutaneous Anaphylaxis (PCA) screening test used to evaluate the present compounds is generally regarded as one of the best animal models for use in predicting the antiallergy activity of test compounds in man. Briefly, the method consists of passive sensitization of skin sites on the test animals with reaginic antibodies followed after 24 hours by administration of the test drug and antigen challenge. The allergic response is measured by use of Evans' blue dye and is evaluated by the spot diameter at the injection site. Details of the test are provided below.
A substituted ovalbumin antigen is used both as immunogen and challenging antigen. The antigen is prepared as follows: 500 mg. ovalbumin (EA) and 500 mg. K2 CO3 are dissolved in 25 ml. distilled H2 O and stirred at room temperature for 5 minutes. Five hundred (500) mg. dinitrobenzene sulfonic acid, Na^+ salt, (previously recrystallized from hot absolute ethanol) is then added slowly with continued stirring. The reaction mixture is then immediately placed in the dark and allowed to proceed for 2 hours with constant stirring. After 2 hours the mixture is placed in suitable dialysis tubing and dialyzed against 5 changes (4 liters each) of distilled H2 O at 5° C. After dialysis the product is lyophilized and stored at room temperature in a brown or amber container. The antigen obtained will appear as a light yellow, amorphous solid which is very soluble in water or saline. It is designated as DNP denatured ovalbumin (DNP-d EA).
Adult, male Sprague-Dawley rats are used as a source of reagin-rich antisera for the PCA model. Immunization is by a combination of DNP-d EA on Al (OH)3 gel and B. pertussis vaccine. Preparation of the DNP-d EA - gel immunogen is as follows: Dissolve the DNP-d EA in TBS so as to give a concentration of 10 mg./ml. Slowly add 1 ml. of this solution to 10 ml. Al(OH)3 gel (10 mg. solids/ml.) with constant stirring at room temperature. Stir the mixture an additional 30 minutes to insure a uniform adsorption of antigen on gel.
The resulting preparation is then used in combination with phase I B. pertussis vaccine to immunize male S/D rats as follows: For each rat administer 0.1 ml. DNP-d EA - gel suspension intramuscularly in each hind leg (200 μg DNP-d EA and 2 mg. gel total dose). Follow these injections by the intraperitoneal administration of 1.0 ml. B. pertussis vaccine (10-20 × 10^9 organisms). The use of light ether anesthesia during this procedure is recommended to insure proper intramuscular and intraperitoneal injections. Nine days following immunization (but no longer than 10) the animals are exsanguinated by cardiac puncture or abdominal aorta cannulation under ether or pentobarbital anesthesia. The collected whole blood is allowed to clot, the serum separated by centrifugation and the individual serum samples stored frozen until assayed for IgE content.
Individual serum samples should be screened for reaginic antibody concentration before being pooled with other sera, as not all rats respond to immunization procedures with reagin production. A 1:50 saline dilution of serum from each immunized rat is used for this purpose. Intradermal injections of 0.05 ml. of the diluted sera are made in the shaven backs of two small female recipient rats, 100-120 gms. Several serum samples can be tested simultaneously in recipient animals. After a 24 to 48 hour latent period antigen challenge is accomplished by […] administration to each rat of 1 mg. DNP-d EA in 0.5 ml. 0.5% Evans' blue dye in saline. Sera which show positive PCA reactions at the 1:50 dilution, as measured 20 to 30 minutes post-challenge are pooled, dispensed in small aliquots and stored at -70° C. or lower until used. Negative sera may be discarded.
The IgE titer of the antisera pool should then be determined. […]

Where [1] appears, read: po, Table I, p.o., 10 minutes prior to antigen challenge, esters suspended in Tween/CMC, read-out: ID50 (dose of compound that inhibits 50% of the response), ethyl esters, p.o.
[2] abbreviates: po, Table II, p.o., 10 minutes prior to antigen challenge, acids solubilized in aqueous sodium bicarbonate, read-out: ID50 (dose of compound that inhibits 50% of the response), 5-carboxylic acids, p.o.
Where [3] appears, read: iv, Table II, i.v., 1-5 minutes prior to antigen challenge, acids solubilized in aqueous sodium bicarbonate, read-out: ID50 (dose of compound that inhibits 50% of the response), 5-carboxylic acids, i.v.

Molecules are shown by their SMILES. Read-outs that look alike come from different tables or passages of the source.

On to `CCOC(=O)c1cnc(-c2ccccc2OC(C)CC)[nH]c1=O` (racemic) [Example 10, Ethyl (±)-1,6-dihydro-6-oxo-2-(2-sec-butoxyphenyl)pyrimidine-5-carboxylate], for which the ED50 under setting [1] is 0.5 mg/kg.

Consider `CCC(C)Oc1ccccc1-c1ncc(C(=O)O)c(=O)[nH]1` (racemic) [Example 24B, (±)-1,6-Dihydro-6-oxo-2-(2-sec-butoxyphenyl)pyrimidine-5-carboxylic acid], for which the ED50 under setting [2] came out at 0.5 mg/kg.

For the compound `CCOC(=O)c1cnc(-c2ccccc2OCC)[nH]c1=O` [Example 1, Ethyl 1,6-dihydro-6-oxo-2-(2-ethoxyphenyl)pyrimidine-5-carboxylate], the ED50 (iv, Table I, i.v., 1-5 minutes prior to antigen challenge, esters suspended in Tween/CMC, read-out: ID50 (dose of compound that inhibits 50% of the response), ethyl esters, i.v.) was 0.4 mg/kg and the ED50 under setting [1] is approximately 2 mg/kg.

As for `CCCOc1ccccc1-c1ncc(C(=O)OCC)c(=O)[nH]1` [Example 5, Ethyl 1,6-dihydro-6-oxo-2-(2-n-propoxyphenyl)pyrimidine-5-carboxylate], under setting [1], the ED50 is approximately 5 mg/kg.

`CCOC(=O)c1cnc(-c2ccccc2OC(C)C)[nH]c1=O` [Example 7, Ethyl 1,6-dihydro-6-oxo-2-(2-isopropoxyphenyl)pyrimidine-5-carboxylate]: the ED50 under setting [1] was approximately 2 mg/kg.

As to `C=CCOc1ccccc1-c1ncc(C(=O)OCC)c(=O)[nH]1` [Example 8, Ethyl 1,6-dihydro-6-oxo-2-(2-allyloxyphenyl)pyrimidine-5-carboxylate], the ED50 under setting [1] was 0.5 mg/kg.

For the compound `CCCCOc1ccccc1-c1ncc(C(=O)OCC)c(=O)[nH]1` [Example 9, Ethyl 1,6-dihydro-6-oxo-2-(2-n-butoxyphenyl)pyrimidine-5-carboxylate], the ED50 under setting [1] was 0.5 mg/kg.

For `CCOC(=O)c1cnc(-c2ccccc2OCC(C)C)[nH]c1=O` [Example 12, Ethyl 1,6-dihydro-6-oxo-2-(2-isobutoxyphenyl)pyrimidine-5-carboxylate], the ED50 under setting [1] was approximately 3 mg/kg.

As to `CCOC(=O)c1cnc(-c2cc(OC)ccc2OC)[nH]c1=O` [Example 15A, Ethyl 1,6-dihydro-6-oxo-2-(2,5-dimethoxyphenyl)pyrimidine-5-carboxylate], the ED50 under setting [1] was determined as 5 mg/kg.

Regarding `CCOC(=O)c1cnc(-c2cc(Cl)ccc2OCC)[nH]c1=O` [Example 15B, Ethyl 1,6-dihydro-6-oxo-2-(5-chloro-2-ethoxyphenyl)pyrimidine-5-carboxylate], the ED50 under setting [1] was approximately 0.5 mg/kg.

As for `CCOC(=O)c1cnc(-c2cc(OC)ccc2OCC)[nH]c1=O` [Example 15C, Ethyl 1,6-dihydro-6-oxo-2-(2-ethoxy-5-methoxyphenyl)pyrimidine-5-carboxylate], under setting [1], the ED50 worked out at 0.3 mg/kg.

Regarding `CCOC(=O)c1ccc(OCC)c(-c2ncc(C(=O)OCC)c(=O)[nH]2)c1` [Example 16, Ethyl 1,6-dihydro-6-oxo-2-(5-carbethoxy-2-ethoxyphenyl)pyrimidine-5-carboxylate], the ED50 under setting [1] was 1 mg/kg.

With `CCOC(=O)c1cnc(-c2cc(N)ccc2OCC)[nH]c1=O` [Example 17, Ethyl 1,6-dihydro-6-oxo-2-(5-amino-2-ethoxyphenyl)pyrimidine-5-carboxylate], the ED50 under setting [1] is 0.5 mg/kg.

As for `CCOC(=O)c1cnc(-c2ccccc2OCC2CC2)[nH]c1=O` [Example 18, Ethyl 1,6-dihydro-6-oxo-2-(2-cyclopropylmethoxyphenyl)pyrimidine-5-carboxylate], under setting [1], the ED50 is approximately 0.3 mg/kg.

Regarding `CCCOc1ccc(OC)cc1-c1ncc(C(=O)OCC)c(=O)[nH]1` [Example 19, Ethyl 1,6-dihydro-6-oxo-2-(5-methoxy-2-n-propoxyphenyl)-pyrimidine-5-carboxylate], the ED50 under setting [1] was found to be 0.7 mg/kg.

With `CCOc1ccccc1-c1ncc(C(=O)O)c(=O)[nH]1` [Example 20, 1,6-Dihydro-6-oxo-2-(2-ethoxyphenyl)pyrimidine-5-carboxylic acid], the ED50 under setting [3] worked out at 0.07 mg/kg and the ED50 under setting [2] was determined as 0.5 mg/kg.

With `CCCOc1ccccc1-c1ncc(C(=O)O)c(=O)[nH]1` [Example 21, 1,6-Dihydro-6-oxo-2-(2-n-propoxyphenyl)pyrimidine-5-carboxylic acid], the ED50 was approximately 0.1 mg/kg under setting [3] and 0.9 mg/kg under setting [2].
